# From paper PMC9490236, “Accurate de novo design of membrane-traversing macrocycles” (Cell, 2022)
# Values joined by “and” are separate entries in the source; they are usually repeats but may differ in a detail not shown here. Identical values can stand only once. Like-named read-outs stand apart in the source and are kept apart here.
# Test: Pharmacokinetics and oral bioavailability of D8.3.p1 and D10.1 in Balb/C female mice (PO, SQ, IV)
# Type: in vivo
# Description: In vivo bioavailability assays were conducted in mice and rats. D8.3.p1 and D10.1 were studied in female Balb/C mice by van Voorhis group at University of Washington. D11.2 was evaluated in Sprague Dawley (SD) rats by Robert Griffin’s group at Takeda Pharmaceuticals. D11.3 was studied in the male swiss albino mice by the contract research organization, GVK Biosciences Pvt. Ltd., Hyderabad, India. All animals used in these studies were handled in strict accordance with practices made to minimize suffering. All animal experiments conducted at the University of Washington, USA, and Takeda Pharmaceuticals, USA were approved by the Institutional Animal Care and Use Committee. Animal studies at GVK Biosciences were reviewed and approved by the Institutional Animal Ethics Committee of GVK Biosciences. We selected four designed macrocycles with diverse structures and in vitro rates of permeability for in vivo oral bioavailability studies in the rodent models. Due to the intensive resource requirements for such studies, these studies were conducted by three different research groups. D8.3.p1 and D10.1 were studied in female Balb/C mice by van Voorhis group at University of Washington. D11.2 was evaluated in Sprague Dawley (SD) rats by Robert Griffin’s group at Takeda Pharmaceuticals. D11.3 was studied in the male swiss albino mice by the contract research organization, GVK Biosciences Pvt. Ltd., Hyderabad, India. […] Blood samples were collected at multiple time points and plasma was separated from whole blood using centrifugation and stored at -80°C. […] Samples were mixed, centrifuged, and supernatant harvested for LC-MS analysis. For RP-HPLC analysis, peptides were evaluated using Agilent ZORBAX Eclipse Plus C18 1.8 μm, 2.1 mm x 50 mm and Waters Xevo TQ-S micro Triple Quadrupole/ACQUITY UPLC H-Class. […] Pharmacokinetic parameters were modeled using the Phoenix WinNonlin software package. […]
# [1] = D10.1 PO 12.2 mg/kg, individual mice M1, M2, M3, 12.2 mg/kg
# [2] = D10.1 PO 12.2 mg/kg, mean n=3, 12.2 mg/kg
# [3] = D10.1 SQ 12.2 mg/kg, individual mice M1, M2, M3
# [4] = D10.1 SQ 12.2 mg/kg, individual mice M2, M3 (M1 NA)
structure (smiles),measurement,setting,value
"CC[C@H](C)[C@@H]1NC(=O)[C@@H](CC(C)C)NC(=O)[C@H](CC(C)C)N(C)C(=O)[C@H](Cc2ccccc2)NC(=O)CN(C)C(=O)[C@@H]2CCCN2C(=O)[C@H](C(C)C)NC(=O)[C@H](Cc2ccccc2)N(C)C(=O)[C@H]2CCCN2C(=O)[C@H](CC(C)C)NC1=O [Design D10.1, DLEU ILE LEU DPRO *PHE VAL PRO *GLY PHE *LEU]",Plasma level,"D10.1 PO 12.2 mg/kg, 15 min, individual mice M1, M2, M3, 12.2 mg/kg",2.26 µM
same,Plasma level,"D10.1 PO 12.2 mg/kg, 15 min, mean n=3, 12.2 mg/kg",2.58 µM
same,Plasma level,"D10.1 PO 12.2 mg/kg, 30 min, individual mice M1, M2, M3, 12.2 mg/kg",2.49 µM and 3.64 µM and 2.64 µM
same,Plasma level,"D10.1 PO 12.2 mg/kg, 30 min, mean n=3, 12.2 mg/kg",2.92 µM
same,Plasma level,"D10.1 PO 12.2 mg/kg, 60 min, individual mice M1, M2, M3, 12.2 mg/kg",2.14 µM and 1.64 µM and 1.57 µM
same,Plasma level,"D10.1 PO 12.2 mg/kg, 60 min, mean n=3, 12.2 mg/kg",1.78 µM
same,Plasma level,"D10.1 PO 12.2 mg/kg, 120 min, mean n=3, 12.2 mg/kg",0.72 µM
same,Plasma level,"D10.1 PO 12.2 mg/kg, 240 min, mean n=3, 12.2 mg/kg",0.16 µM
same,Plasma level,"D10.1 PO 12.2 mg/kg, 360 min, individual mice M1, M2, M3, 12.2 mg/kg",0 µM and 0.1 µM
same,Plasma level,"D10.1 PO 12.2 mg/kg, 360 min, mean n=3, 12.2 mg/kg",0.07 µM
same,Plasma level,"D10.1 PO 12.2 mg/kg, 1440 min, individual mice M1, M2, M3",0 µM
same,Plasma level,"D10.1 PO 12.2 mg/kg, 1440 min, mean n=3",0 µM
same,Tmax,"D10.1 PO 12.2 mg/kg, individual mice M1, M2, M3",30 min
same,AUC0-∞,[1],226.62 µmol·min/L and 337.03 µmol·min/L and 276.18 µmol·min/L
same,AUC(0-t),[1],216.96 µmol·min/L and 327.78 µmol·min/L and 266.45 µmol·min/L
same,Cl/F,[1],0.000944 L/min and 0.000635 L/min and 0.000775 L/min
same,T1/2,[1],63.05 min and 67.95 min
same,Cmax,"D10.1 PO 12.2 mg/kg, individual mice M1, M2, M3, 12.2 mg/kg, read-out: Cmax",3640 nM and 2640 nM
same,AUC0-∞,[2],279.94 µmol·min/L
same,AUC(0-t),[2],270.4 µmol·min/L
same,Plasma level,"D10.1 SQ 12.2 mg/kg, 15 min, mean n=3",2.53 µM
same,Plasma level,"D10.1 SQ 12.2 mg/kg, 30 min, individual mice M1, M2, M3",1.81 µM and 3.69 µM and 5.15 µM
same,Plasma level,"D10.1 SQ 12.2 mg/kg, 30 min, mean n=3",3.55 µM
same,Plasma level,"D10.1 SQ 12.2 mg/kg, 60 min, individual mice M1, M2, M3",1.87 µM and 4.88 µM and 5.03 µM
same,Plasma level,"D10.1 SQ 12.2 mg/kg, 60 min, mean n=3",3.93 µM
same,Plasma level,"D10.1 SQ 12.2 mg/kg, 360 min, mean",2.29 µM
same,Plasma level,"D10.1 SQ 12.2 mg/kg, 1440 min, individual mice M1, M2, M3",0 µM
same,Plasma level,"D10.1 SQ 12.2 mg/kg, 1440 min, mean n=3",0.01 µM
same,AUC(0-t),[3],730.93 µmol·min/L and 3578.6 µmol·min/L and 1329.09 µmol·min/L
same,Tmax,[3],360 min and 60 min
same,Cmax,"D10.1 SQ 12.2 mg/kg, individual mice M1, M2, M3, read-out: Cmax",2400 nM and 4880 nM and 5150 nM
same,AUC0-∞,[4],3585.94 µmol·min/L and 2148.41 µmol·min/L
same,Cl/F,[4],5.97e-05 L/min and 9.96e-05 L/min
same,T1/2,[4],259.81 min
same,AUC0-∞,"D10.1 SQ 12.2 mg/kg, mean",2867.17 µmol·min/L
same,Half-life T1/2,"D10.1 SQ 12.2 mg/kg, mean",225.38 ± 48.70 min
same,AUC(0-t),"D10.1 SQ 12.2 mg/kg, mean n=3",1879.54 µmol·min/L
same,clearance,"female, Balb/C, mouse, plasma, iv, […], D10.1 IV […], individual mice M1, M2, M3, read-out: CLP",3.46 mL/min/kg
same,half-life,"female, Balb/C, mouse, plasma, iv, […], D10.1 IV […], individual mice M1, M2, M3, read-out: T1/2",72.4 min
same,Vd,"female, Balb/C, mouse, plasma, iv, […], D10.1 IV […], individual mice M1, M2, M3, read-out: VSS",0.32 L/kg
same,Vd,"female, Balb/C, mouse, plasma, iv, […], D10.1 IV […], individual mice M1, M2, M3, read-out: VZ",0.36 L/kg
same,half-life,"female, Balb/C, mouse, plasma, iv, […], D10.1 IV […], mean n=3, read-out: Half-life T1/2",67.4 ± 6.78 min
same,clearance,"female, Balb/C, mouse, plasma, iv, […], D10.1 IV […], mean n=3, read-out: Plasma clearance CLP",3.26 ± 0.37 mL/min/kg
same,Vd,"female, Balb/C, mouse, plasma, iv, […], D10.1 IV […], mean n=3, read-out: Volume of distribution @ steady state VSS",0.25 ± 0.08 L/kg
same,Vd,"female, Balb/C, mouse, plasma, iv, […], D10.1 IV […], mean n=3, read-out: Volume of distribution during elimination phase VZ",0.32 ± 0.07 L/kg
same,level at time molar at 0.25 h,"female, Balb/C, mouse, plasma, po, 12.2 mg/kg, D10.1 PO 12.2 mg/kg, 15 min, individual mice M1, M2, M3, read-out: Plasma level",2220 nM
same,level at time molar at 2 h,"female, Balb/C, mouse, plasma, po, 12.2 mg/kg, D10.1 PO 12.2 mg/kg, 120 min, individual mice M1, M2, M3, read-out: Plasma level",540 nM
same,level at time molar at 4 h,"female, Balb/C, mouse, plasma, po, 12.2 mg/kg, D10.1 PO 12.2 mg/kg, 240 min, individual mice M1, M2, M3",130 nM
same,level at time molar at 6 h,"female, Balb/C, mouse, plasma, po, 12.2 mg/kg, D10.1 PO 12.2 mg/kg, 360 min, individual mice M1, M2, M3, read-out: Plasma level",100 nM
same,Cmax,"female, Balb/C, mouse, plasma, po, 12.2 mg/kg, D10.1 PO 12.2 mg/kg, individual mice M1, M2, M3, read-out: Cmax",2490 nM
same,half-life,"female, Balb/C, mouse, plasma, po, 12.2 mg/kg, D10.1 PO 12.2 mg/kg, individual mice M1, M2, M3, read-out: T1/2",49.9 min
same,Tmax,"female, Balb/C, mouse, plasma, po, 12.2 mg/kg, D10.1 PO 12.2 mg/kg, individual mice M1, M2, M3, read-out: Tmax (converted)",30 min
same,half-life,"female, Balb/C, mouse, plasma, po, 12.2 mg/kg, D10.1 PO 12.2 mg/kg, mean n=3, read-out: Half-life T1/2",60.3 ± 9.35 min
same,Cmax,"female, Balb/C, mouse, plasma, po, 12.2 mg/kg, D10.1 PO 12.2 mg/kg, mean n=3, read-out: Max concentration Cmax",2920 ± 630 nM
same,Tmax,"female, Balb/C, mouse, plasma, po, 12.2 mg/kg, D10.1 PO 12.2 mg/kg, mean n=3, read-out: Time of max concentration Tmax (converted)",30 min
same,bioavailability,"female, Balb/C, mouse, plasma, po, 12.2 mg/kg, read-out: Oral bioavailability F",7.48 ± 1.79%
same,level at time molar at 6 h,"female, Balb/C, mouse, plasma, sc, 12.2 mg/kg, D10.1 SQ 12.2 mg/kg, 360 min, individual mice M1, M3 (M2 ND), read-out: Plasma level",2400 nM
same,level at time molar at 24 h,"female, Balb/C, mouse, plasma, sc, 12.2 mg/kg, D10.1 SQ 12.2 mg/kg, 1440 min, individual mice M1, M2, M3, read-out: Plasma level",30 nM
same,AUC(0-inf),"female, Balb/C, mouse, plasma, sc, D10.1 SQ 12.2 mg/kg, mean",47.8 µM·h
same,AUC(0-t),"female, Balb/C, mouse, plasma, sc, D10.1 SQ 12.2 mg/kg, mean n=3, read-out: AUC0-t (converted)",1880 µmol·min/L
same,half-life,"female, Balb/C, mouse, plasma, subcutaneous, 12.2 mg/kg, D10.1 SQ 12.2 mg/kg, individual mice M2, M3 (M1 NA), read-out: T1/2",191 min
same,AUC(0-inf),"female, Balb/C, mouse, plasma, D10.1 PO 12.2 mg/kg, mean n=3",4.67 µM·h
same,AUC(0-t),"female, Balb/C, mouse, plasma, D10.1 PO 12.2 mg/kg, mean n=3, read-out: AUC0-t (converted)",270 µmol·min/L
same,CL/F,"female, Balb/C, mouse, plasma, D10.1 PO 12.2 mg/kg, mean n=3, read-out: Apparent clearance Cl/F",0.785 mL/min
same,half-life,"mouse, in vivo, sc, 12.2 mg/kg, D10.1 after SQ administration, read-out: plasma half-life T1/2 (converted)",225 min
